Experimental findings from ChEMBL document CHEMBL3425471, “Design, synthesis and biological evaluation of novel pyrazoline-containing derivatives as potential tubulin assembling inhibitors” (Eur J Med Chem, 2015) are described below.

One experiment deals with HepG2. Description: cells. Particulars: Homo sapiens, HepG2, 24 h.
In the next experiment the test system is A549. Description: cells. Particulars: Homo sapiens, A549, 24 h.
Another experiment concerns MCF7. Description: cells. Particulars: Homo sapiens, MCF7, 24 h.
Another experiment addresses Tubulin (Bos taurus, UniProt Q6B856+Q862L2+Q862F3). Description: Inhibition of bovine brain tubulin polymerization after 20 mins by turbidimetric analysis.

Description for A549: Antiproliferative activity against human A549 cells assessed as reduction in cell viability after 24 hrs by MTT assay
Description for HepG2: Antiproliferative activity against human HepG2 cells assessed as reduction in cell viability after 24 hrs by MTT assay
Description for MCF7: Antiproliferative activity against human MCF7 cells assessed as reduction in cell viability after 24 hrs by MTT assay

What is called IC50 is the concentration needed to halve the response being measured. With `COc1ccc(/C=C\c2cc(OC)c(OC)c(OC)c2)cc1O` [COMBRETASTATIN A4], the figures for the IC50 with HepG2 and in the experiment with A549 were 0.17 µM and 0.14 µM, respectively.

Turning to `O=C(c1ccc(Br)cc1)N1N=C(c2ccc(Cl)cc2)CC1c1ccc2c(c1)OCO2` (stereo not given), the IC50 in the experiment on HepG2 was greater than 10 µM; with A549, greater than 10 µM; with MCF7 it was greater than 10 µM; on Tubulin it was greater than 40 µM.

`COc1cc(C(=O)N2N=C(c3ccc(C)cc3)CC2c2ccc3c(c2)OCO3)cc(OC)c1OC` (stereo not given): the IC50 in the experiment on HepG2 came to 2.91 µM; in the experiment on A549, 1.14 µM; with MCF7, 2.35 µM; against Tubulin it was 10.11 µM.

`CCOc1ccc(C2=NN(C(=O)c3cc(OC)c(OC)c(OC)c3)C(c3ccc4c(c3)OCO4)C2)cc1` (stereo not given): the IC50 worked out at 0.07 µM in the experiment with HepG2, 0.09 µM in the experiment on A549, 0.17 µM in the experiment with MCF7 and 2.19 µM on Tubulin.

`COc1ccc(C2=NN(C(=O)c3cccc(OC)c3)C(c3ccc4c(c3)OCO4)C2)cc1` (stereo not given): the IC50 is 6.25 µM with HepG2, 6.17 µM in the experiment with A549, 8.22 µM in the experiment with MCF7 and 34.77 µM against Tubulin.

For the molecule `COc1cccc(C2=NN(C(=O)c3ccc(Br)cc3)C(c3ccc4c(c3)OCO4)C2)c1` (stereo not given), the IC50 in the experiment with HepG2 is greater than 10 µM; in the experiment with A549 it was greater than 10 µM; in the experiment with MCF7, greater than 10 µM; against Tubulin, greater than 40 µM.

Take `O=C(c1ccc(Br)cc1)N1N=C(c2ccc(F)cc2)CC1c1ccc2c(c1)OCO2` (stereo not given): the 50% inhibitory concentration (IC50) was greater than 10 µM in the experiment with HepG2, 2.45 µM with A549, 5.11 µM in the experiment on MCF7 and greater than 40 µM at Tubulin.

Take `COc1cc(C(=O)N2N=C(c3cc(OC)c(OC)c(OC)c3)CC2c2ccc3c(c2)OCO3)cc(OC)c1OC` (stereo not given): the IC50 came to 3.15 µM in the experiment on HepG2, 2.23 µM with A549, 3.26 µM in the experiment on MCF7 and 11.37 µM at Tubulin.

`COc1ccc(C2=NN(C(=O)c3cc(OC)c(OC)c(OC)c3)C(c3ccc4c(c3)OCO4)C2)cc1OC` (stereo not given): the IC50 was determined as 0.06 µM in the experiment on HepG2, 0.08 µM in the experiment on A549, 0.07 µM in the experiment on MCF7 and 2.13 µM on Tubulin.

Turning to `Cc1cccc(C2=NN(C(=O)c3ccc(Br)cc3)C(c3ccc4c(c3)OCO4)C2)c1` (stereo not given), the half-inhibitory concentration (IC50) is greater than 10 µM in the experiment with HepG2, greater than 10 µM in the experiment with A549, greater than 10 µM in the experiment on MCF7 and greater than 40 µM at Tubulin.

`COc1ccccc1C1=NN(C(=O)c2ccc(Br)cc2)C(c2ccc3c(c2)OCO3)C1` (stereo not given): the half-maximal inhibitory concentration (IC50) is greater than 10 µM in the experiment with HepG2, greater than 10 µM in the experiment with A549, greater than 10 µM in the experiment on MCF7 and greater than 40 µM on Tubulin.

Turning to `COc1cccc(C2=NN(C(=O)c3cc(OC)c(OC)c(OC)c3)C(c3ccc4c(c3)OCO4)C2)c1` (stereo not given), the IC50 in the experiment on HepG2 came to 0.07 µM; with A549, 0.09 µM; in the experiment on MCF7 it was 0.06 µM; on Tubulin, 1.91 µM.

Regarding `O=C(c1ccc(Br)cc1)N1N=C(c2ccc(Br)cc2)CC1c1ccc2c(c1)OCO2` (stereo not given), the IC50 with HepG2 was greater than 10 µM; with A549, greater than 10 µM; in the experiment on MCF7, greater than 10 µM; at Tubulin, greater than 40 µM.

Consider `Cc1ccc(C2=NN(C(=O)c3ccc(Br)cc3)C(c3ccc4c(c3)OCO4)C2)cc1` (stereo not given), for which the IC50 is greater than 10 µM with HepG2, greater than 10 µM with A549, greater than 10 µM in the experiment on MCF7 and greater than 40 µM at Tubulin.

Consider `COc1ccc(C2=NN(C(=O)c3ccc(Cl)cc3)C(c3ccc4c(c3)OCO4)C2)cc1` (stereo not given), for which the IC50 in the experiment with HepG2 is 8.38 µM; in the experiment with A549, 7.14 µM; in the experiment on MCF7, 8.66 µM; against Tubulin, greater than 40 µM.

As to `COc1cc(C2=NN(C(=O)c3ccc(Br)cc3)C(c3ccc4c(c3)OCO4)C2)cc(OC)c1OC` (stereo not given), the IC50 was found to be 6.22 µM in the experiment on HepG2, 4.16 µM with A549, 5.26 µM in the experiment with MCF7 and 25.06 µM against Tubulin.

Turning to `COc1cc(C(=O)N2N=C(c3ccc(F)cc3)CC2c2ccc3c(c2)OCO3)cc(OC)c1OC` (stereo not given), the half-inhibitory concentration (IC50) is 0.25 µM in the experiment on HepG2, 0.76 µM in the experiment on A549, 0.32 µM in the experiment on MCF7 and 7.89 µM at Tubulin.

With `COc1ccc(C2=NN(C(=O)c3ccc(F)cc3)C(c3ccc4c(c3)OCO4)C2)cc1` (stereo not given), the IC50 in the experiment with HepG2 is 1.86 µM; in the experiment on A549, 1.08 µM; in the experiment with MCF7, 1.77 µM; against Tubulin, 7.69 µM.

Turning to `COc1cc(C2=NN(C(=O)c3ccc(F)cc3)C(c3ccc4c(c3)OCO4)C2)cc(OC)c1OC` (stereo not given), the half-inhibitory concentration (IC50) came to 1.06 µM with HepG2, 0.78 µM in the experiment on A549, 0.22 µM in the experiment on MCF7 and 2.09 µM against Tubulin.

Take `COc1ccc(C2=NN(C(=O)c3ccc(Br)cc3)C(c3ccc4c(c3)OCO4)C2)cc1OC` (stereo not given): the half-inhibitory concentration (IC50) in the experiment on HepG2 was 6.26 µM; in the experiment on A549, 3.19 µM; in the experiment with MCF7, 4.46 µM; against Tubulin it was 22.06 µM.

Consider `COc1cc(C(=O)N2N=C(c3ccc(Br)cc3)CC2c2ccc3c(c2)OCO3)cc(OC)c1OC` (stereo not given), for which the concentration for half-maximal inhibition (IC50) in the experiment on HepG2 came out at 5.25 µM; in the experiment on A549 it was 4.21 µM; in the experiment on MCF7, 6.37 µM; against Tubulin it was 19.45 µM.

`COc1cc(C(=O)N2N=C(c3ccc(Cl)cc3)CC2c2ccc3c(c2)OCO3)cc(OC)c1OC` (stereo not given): the half-maximal inhibitory concentration (IC50) is 3.16 µM in the experiment on HepG2, 3.08 µM in the experiment on A549, 4.26 µM in the experiment on MCF7 and 18.02 µM on Tubulin.

On to `COc1cc(C(=O)N2N=C(c3cccc(Cl)c3)CC2c2ccc3c(c2)OCO3)cc(OC)c1OC` (stereo not given), for which the IC50 in the experiment on HepG2 is 7.15 µM; in the experiment with A549, 7.11 µM; with MCF7, 9.23 µM; at Tubulin it was greater than 40 µM.

On to `COc1cc(C(=O)N2N=C(c3ccccc3)CC2c2ccc3c(c2)OCO3)cc(OC)c1OC` (stereo not given), for which the IC50 with HepG2 turned out to be 2.24 µM; in the experiment on A549, 2.19 µM; in the experiment with MCF7, 3.38 µM; against Tubulin, 15.63 µM.

Regarding `CCOc1ccc(C2=NN(C(=O)c3ccc(Br)cc3)C(c3ccc4c(c3)OCO4)C2)cc1` (stereo not given), the half-inhibitory concentration (IC50) was greater than 10 µM in the experiment on HepG2, greater than 10 µM in the experiment on A549, greater than 10 µM with MCF7 and greater than 40 µM at Tubulin.

Consider `COc1ccc(C(=O)N2N=C(c3ccc(OC)cc3)CC2c2ccc3c(c2)OCO3)cc1` (stereo not given), for which the IC50 in the experiment on HepG2 stood at 5.05 µM; with A549 it was 4.08 µM; in the experiment on MCF7, 6.41 µM; against Tubulin, 25.79 µM.

Turning to `COc1cc(C2=NN(C(=O)c3ccc(Cl)cc3)C(c3ccc4c(c3)OCO4)C2)cc(OC)c1OC` (stereo not given), the IC50 is 2.14 µM in the experiment with HepG2, 4.26 µM in the experiment on A549, 4.77 µM in the experiment with MCF7 and 21.73 µM at Tubulin.

Consider `O=C(c1ccc(Br)cc1)N1N=C(c2ccccc2)CC1c1ccc2c(c1)OCO2` (stereo not given), for which the half-maximal inhibitory concentration (IC50) in the experiment with HepG2 was greater than 10 µM; with A549 it was greater than 10 µM; in the experiment on MCF7, greater than 10 µM; against Tubulin, greater than 40 µM.

As for `COc1ccccc1C1=NN(C(=O)c2cc(OC)c(OC)c(OC)c2)C(c2ccc3c(c2)OCO3)C1` (stereo not given), the IC50 with HepG2 is 0.12 µM; in the experiment on A549, 0.11 µM; in the experiment with MCF7, 0.21 µM; against Tubulin it was 2.35 µM.

As for `COc1cc(C(=O)N2N=C(c3cccc(C)c3)CC2c2ccc3c(c2)OCO3)cc(OC)c1OC` (stereo not given), the IC50 was 5.17 µM in the experiment on HepG2, 5.08 µM in the experiment on A549, 7.34 µM in the experiment on MCF7 and 7.08 µM at Tubulin.

For the molecule `COc1ccc(C2=NN(C(=O)c3ccc(OC)c(OC)c3)C(c3ccc4c(c3)OCO4)C2)cc1` (stereo not given), the concentration for half-maximal inhibition (IC50) in the experiment on HepG2 was 3.77 µM; in the experiment with A549, 2.73 µM; with MCF7, 3.56 µM; against Tubulin it was 15.73 µM.

`COc1ccc(C2=NN(C(=O)c3ccccc3)C(c3ccc4c(c3)OCO4)C2)cc1` (stereo not given): the 50% inhibitory concentration (IC50) in the experiment on HepG2 was 6.25 µM; in the experiment with A549, 5.21 µM; in the experiment with MCF7, 5.37 µM; against Tubulin, 35.45 µM.

As to `COc1ccc(C2=NN(C(=O)c3ccc(Br)cc3)C(c3ccc4c(c3)OCO4)C2)cc1` (stereo not given), the half-maximal inhibitory concentration (IC50) in the experiment on HepG2 was greater than 10 µM; with A549 it was greater than 10 µM; in the experiment on MCF7, greater than 10 µM; at Tubulin, greater than 40 µM.
